These results are taken from patent US6846659B2, “Isolation and bacterial expression of a sesquiterpene synthase cDNA clone from peppermint (Mentha x piperita, L.) that produces the aphid alarm pheromone (E)-β-farnesene” (Washington State University Research Foundation, priority 1997, dated 2005).

One data set deals with whiteflies. Conditions: vapor; cited from earlier work.
The next data set concerns aphids. Conditions: dose of 100 ng/aphid; cited from earlier work.
For data set [1], the target named is T1, recombinant (E)-β-farnesene synthase (SEQ ID NO:2) (Mentha piperita, UniProt O48935).
T1 construct: made in house; host or cells: E. coli XL1-Blue harboring pBluescript clone p43
T1 sequence (O48935 1-550): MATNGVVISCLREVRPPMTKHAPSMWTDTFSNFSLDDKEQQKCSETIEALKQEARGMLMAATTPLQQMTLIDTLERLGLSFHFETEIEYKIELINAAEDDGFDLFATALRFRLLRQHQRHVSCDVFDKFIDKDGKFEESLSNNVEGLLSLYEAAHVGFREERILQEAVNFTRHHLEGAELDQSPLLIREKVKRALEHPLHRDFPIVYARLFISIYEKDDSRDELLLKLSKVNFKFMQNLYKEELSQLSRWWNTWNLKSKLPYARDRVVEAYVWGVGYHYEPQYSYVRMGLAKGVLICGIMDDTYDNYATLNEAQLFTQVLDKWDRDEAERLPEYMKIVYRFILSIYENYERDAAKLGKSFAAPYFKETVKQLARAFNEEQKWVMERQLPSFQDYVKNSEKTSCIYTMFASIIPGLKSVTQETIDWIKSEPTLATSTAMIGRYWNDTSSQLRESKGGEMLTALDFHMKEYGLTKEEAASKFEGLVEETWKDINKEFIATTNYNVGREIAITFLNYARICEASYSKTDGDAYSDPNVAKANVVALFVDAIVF
In words: Kinetic characterization of recombinant, partially purified (E)-β-farnesene synthase (sesquiterpene/monoterpene/diterpene synthase assay). The class given is biochemical, peppermint (Mentha piperita).

Substrate in data set [2]: CC(C)=CCC/C(C)=C/CC/C(C)=C/CO[P@@](=O)(O)OP(=O)(O)O
Described as above. The class given is biochemical, peppermint (Mentha piperita). Conditions: other: substrate range 0.31 to 20 μM, saturating Mg++; double reciprocal plot.

On to `C=CC(=C)CC/C=C(\C)CCC=C(C)C` [(E)-β-farnesene], for which the toxicity to whiteflies entry with whiteflies was “toxic”. Moreover, the “acute toxicity to aphids” value in the data set with aphids was “acutely toxic”. For `CC(C)=CCC/C(C)=C/COP(=O)(O)OP(=O)(O)O` [GDP, geranyl diphosphate], in data set [1] (substrate range 0.31 to 20 μM, saturating Mg++, double reciprocal plot), the Km (commonly the substrate concentration at which the rate is half of its maximum) turned out to be 1.5 µM.

`CC(C)=CCC/C(C)=C/CC/C(C)=C/CC/C(C)=C/COP(=O)(O)OP(=O)(O)O` [[1-^3H]GGDP, geranylgeranyl diphosphate]: the “activity of the synthase with the substrate analog” value in data set [1] (C20 substrate analog, 10 μM) was “inactive”.

B1: recombinant (E)-β-farnesene synthase (SEQ ID NO:2) (Mentha x piperita) (protein)
chain: T1 sequence (O48935 1-550)
notes: made in house; host or cells: E. coli XL1-Blue harboring pBluescript clone p43
As for B1, the Km in data set [2] amounted to 0.6 µM.
